System: HPAF, a human pancreatic cancer cell line
Assay: In vitro anticancer efficacy test on human pancreatic cancer cell line (CCK cell viability assay)
Assay type: cell-based
Conditions: for IC50: HPAF cells, 96 hours, CCK assay
Protocol: HPAF, a human pancreatic cancer cell line, was dispensed in a 96-well plate and incubated in a 37° C., 5% CO2 incubator for 24 hours. Thereafter, 10 μl of Examples and Comparative Examples were treated to each well at different concentrations (1 nM, 0.01 μM, 0.1 μM, 1 μM, 10 μM, 100 μM) and incubated for 96 hours. Each well was treated with a reagent using a CCK assay kit (Dong-In LS, D Plus CCK cell viability assay kit), and reacted in a 37° C., 5% CO2 incubator for 30 minutes to 1 hour, and then the absorbance was measured at a wavelength of 450 nm using a microplate reader (SpectraMax i3x, USA). The IC50 value was confirmed using the GraphPad Prism 5 (GraphPad Software, Inc., San Diego, USA) program from the results obtained at this time.

CNC(=O)CCN(Cc1ccc(C(F)F)cc1)C(=O)c1cc2c(OC)ccc(-c3ccc(=O)n(C)c3)c2s1 [BBC1115, N-[[4-(difluoromethyl)phenyl]methyl]-4-methoxy-N-[3-(methylamino)-3-oxo-propyl]-7-(1-methyl-6-oxo-3-pyridyl)benzothiophene-2-carboxamide]
IC50 (Homo sapiens, Pancreatic cancer cell): 130 nM | IC50 value for HPAF, times lower than Comparative Example 1 (versus JQ1): about 17.69 times

Cc1sc2c(c1C)C(c1ccc(Cl)cc1)=N[C@@H](CC(=O)OC(C)(C)C)c1nnc(C)n1-2 [JQ1, reference compound]
IC50: 2300 nM
